According to patent US8906925B2, “Pyrido[4,3-B]indoles containing rigid moieties” (Medivation Technologies, Inc., priority 2008, dated 2014):

Legend:
Long-Evans rats = experiment: 5-choice serial reaction time task (5CSRTT); format: in vivo, rat; conditions: 0.1, 0.3 and 1.0 mg/kg p.o.
Text: Attention and impulsivity are characteristic of several disease states. The continuous performance test (CPT), used in humans, is capable of detecting attention deficts in a number of disorders, including attention deficit hyperactivity disorder, schizophrenia and mild cognitive impairment. The pre-clinical analogue of the CPT is the 5-choice serial reaction time task (5CSRTT). In this operant-based test, rats are required to be attentive and withhold responding while they monitor 5 apertures for the appearance of a brief stimulus light in one of the apertures. The brief illumination of the stimulus light in the 5CSRTT is analogous to the appearance of the “correct” letters in the CPT in humans. Upon observing the stimulus light, the rat must nose-poke in the corresponding aperture to receive a food reward. The 5CSRTT allows the measurement of similar behavioral responses as the CPT, including accuracy, speed of responding, impulsive and compulsive responding.
Thirteen male Long-Evans rats (275-300 g) were obtained from Harlan Laboratories, Indianapolis, Ind. At the time of testing for the current study, the rats were approximately 16-18 months old. Upon arrival, the rats were assigned unique identification numbers (tail marked). […]

mice (e.g., C57Bl/6J) = experiment: Amphetamine-induced hyperactivity, open field test; format: in vivo, mouse; conditions: amphetamine (4 mg/kg), 90 min. test
Experimental: Male mice (various strains e.g., C57Bl/6J) from appropriate supplier (for example Jackson Laboratories, Bar Harbor, Me.) were used. Mice typically were received at 6-weeks of age. Mice were acclimated to the colony room for at least two weeks prior to testing. During the period of acclimation, mice were examined on a regular basis, handled, and weighed to assure adequate health and suitability and maintained on a 12 h/12 h light/dark cycle. The room temperature was maintained between 20 and 23° C. with a relative humidity maintained between 30% and 70%. Food and water were provided ad libitum for the duration of the study. In each test, animals were randomly assigned between treatment groups.
The open field test (OF) was used to assess motor activity. […] Horizontal activity (distance traveled) and vertical activity (rearing) were measured from consecutive beam breaks.
On the day of testing, animals were brought to the experimental room for at least 1 h acclimation prior to start of treatment. […] The time of administration of test compound to each animal was recorded. Baseline activity was recorded for […]. following which mice received amphetamine (4 mg/kg) or water and were placed back in the OF chambers for a 60-min. session. […]
Data were analyzed by analysis of variance (ANOVA) followed by post-hoc comparisons with Fisher Tests when appropriate. […]

Row | Compound | impulsivity-like and perserverative-like behavior (Long-Evans rats) | Total Distance Traveled (center+periphery), ANOVA (mice (e.g., C57Bl/6J)) | Total Rearing (center+periphery), ANOVA (mice (e.g., C57Bl/6J))
1 | C/C(=C\n1c2c(c3cc(Cl)ccc31)CN(C)CC2)c1ccncc1 [Compound 90, (E)-8-chloro-2,3,4,5-tetrahydro-2-methyl-5-(2-(pyridin-4-yl)prop-1-enyl)-1H-pyrido[4,3-b]indole] | reduces | – | –
2 | C/C(=C\n1c2c(c3cc(Cl)ccc31)CN(C)CC2)c1ccc(F)cc1 [Compound 83, (E)-8-chloro-5-(2-(4-fluorophenyl)prop-1-enyl)-2,3,4,5-tetrahydro-2-methyl-1H-pyrido[4,3-b]indole] | – | significant treatment effect | significant treatment effect
